Measurements reported in ChEMBL document CHEMBL1201862, “PubChem BioAssay data set” (2004).
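Method: 48-hour compound exposure of cells in 96-well plates, five concentrations, linear interpolation of endpoints. GI50 is the concentration that inhibits growth by half.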 Active and inactive are the calls of the source. Rule as the data show it: active = GI50 up to about 1.1 µM and inactive = higher.

Columns and labels:
Experiment in all cases: NCI-60 cell line screen, 48 h
RPMI-8226 = test system: RPMI-8226
NCI-H460 = test system: NCI-H460
SK-MEL-2 = test system: SK-MEL-2
NCI-H23 = test system: NCI-H23
UACC-62 = test system: UACC-62
U-251 = test system: U-251
KM12 = test system: KM12
OVCAR-5 = test system: OVCAR-5
A498 = test system: A498
ACHN = test system: ACHN
SK-MEL-5 = test system: SK-MEL-5
A549 = test system: A549
SW-620 = test system: SW-620
MOLT-4 = test system: MOLT-4
SNB-19 = test system: SNB-19
786-0 = test system: 786-0
NCI-H226 = test system: NCI-H226
COLO 205 = test system: COLO 205
SK-MEL-28 = test system: SK-MEL-28
PC-3 = test system: PC-3
HT-29 = test system: HT-29
SF-539 = test system: SF-539
BT-549 = test system: BT-549
Hs-578T = test system: Hs-578T
HOP-92 = test system: HOP-92
SN12C = test system: SN12C
HCC 2998 = test system: HCC 2998
MDA-MB-435 = test system: MDA-MB-435
EKVX = test system: EKVX
OVCAR-8 = test system: OVCAR-8
T47D = test system: T47D
DU-145 = test system: DU-145
IGROV-1 = test system: IGROV-1
NCI-H522 = test system: NCI-H522
OVCAR-3 = test system: OVCAR-3
CAKI-1 = test system: CAKI-1
MCF7 = test system: MCF7
HL-60 = test system: HL-60
SK-OV-3 = test system: SK-OV-3
SF-295 = test system: SF-295
HOP-62 = test system: HOP-62
NCI/ADR-RES = test system: NCI/ADR-RES
Malme-3M = test system: Malme-3M
HCT-15 = test system: HCT-15
M14 = test system: M14
SF-268 = test system: SF-268
CCRF-CEM = test system: CCRF-CEM
TK-10 = test system: TK-10
SNB-75 = test system: SNB-75
MDA-MB-231 = test system: MDA-MB-231
UACC-257 = test system: UACC-257
OVCAR-4 = test system: OVCAR-4
UO-31 = test system: UO-31
HCT-116 = test system: HCT-116
MDA-N = test system: MDA-N
LOX IMVI = test system: LOX IMVI
K562 = test system: K562
RXF 393 = test system: RXF 393
SR = test system: SR

Measured: GI50

C=C1N(C)c2ccc(S(=O)(=O)c3ccc4c(c3)C(C)(C)C(=C)N4C)cc2C1(C)C
59.7 µM: HCT-15
inactive: RPMI-8226 9.08 µM | NCI-H460 49.8 µM | SK-MEL-2 41.3 µM | NCI-H23 27.4 µM | UACC-62 29.1 µM | U-251 31.5 µM | KM12 45.5 µM | OVCAR-5 83.9 µM | A498 37.2 µM | ACHN 77.8 µM | SK-MEL-5 17.5 µM | A549 28.6 µM | SW-620 45 µM | MOLT-4 18 µM | SNB-19 39.2 µM | 786-0 58.5 µM | NCI-H226 > 100 µM | COLO 205 16.3 µM | SK-MEL-28 > 100 µM | PC-3 35.5 µM | HT-29 47 µM | SF-539 > 100 µM | BT-549 26.1 µM | Hs-578T 24.3 µM | HOP-92 3.85 µM | SN12C 42.2 µM | HCC 2998 34.5 µM | MDA-MB-435 30.8 µM | EKVX 30.9 µM | OVCAR-8 27.1 µM | T47D 24.2 µM | DU-145 60 µM | IGROV-1 27.3 µM | NCI-H522 20.7 µM | OVCAR-3 25.4 µM | CAKI-1 62.4 µM | MCF7 29 µM | HL-60 27.3 µM | SK-OV-3 > 100 µM | SF-295 22.8 µM | HOP-62 56.1 µM | NCI/ADR-RES 59 µM | Malme-3M 19.5 µM | M14 31.2 µM | SF-268 36.6 µM | CCRF-CEM 50.1 µM | TK-10 36.1 µM | SNB-75 16.3 µM | MDA-MB-231 33.6 µM | UACC-257 26.4 µM | OVCAR-4 35.3 µM | UO-31 51.6 µM | HCT-116 34.5 µM | MDA-N 39 µM

NCCCNCCS
inactive: NCI-H460 > 100 µM | NCI-H23 > 100 µM | A498 > 100 µM | ACHN > 100 µM | NCI-H226 > 100 µM | SK-MEL-28 > 100 µM | PC-3 > 100 µM | SF-539 > 100 µM | BT-549 > 100 µM | Hs-578T > 100 µM | MDA-MB-435 65.5 µM | T47D > 100 µM | DU-145 > 100 µM | IGROV-1 > 100 µM | NCI-H522 91.8 µM | OVCAR-3 > 100 µM | CAKI-1 51.8 µM | MCF7 > 100 µM | HOP-62 > 100 µM | NCI/ADR-RES > 100 µM | Malme-3M > 100 µM | LOX IMVI > 100 µM | SNB-75 > 100 µM | MDA-MB-231 > 100 µM | HCT-116 > 100 µM | MDA-N > 100 µM
74.3 µM: HCT-15

O=S(=O)(N/C(=N\O)Nc1ccc(Cl)cc1)c1cc2ccccc2s1
18 µM: HCT-15
inactive: NCI-H460 31.8 µM | SK-MEL-2 15.8 µM | NCI-H23 16 µM | UACC-62 15.3 µM | U-251 15.2 µM | KM12 22.3 µM | OVCAR-5 15.2 µM | ACHN 16.4 µM | SK-MEL-5 16.3 µM | A549 18.7 µM | SW-620 23.7 µM | MOLT-4 16.2 µM | SNB-19 17 µM | 786-0 18.4 µM | K562 27.9 µM | NCI-H226 15.4 µM | COLO 205 15.2 µM | SK-MEL-28 19.4 µM | PC-3 14.5 µM | HT-29 19.6 µM | SF-539 18.5 µM | BT-549 17.1 µM | Hs-578T 18.7 µM | HOP-92 18.3 µM | SN12C 18.6 µM | MDA-MB-435 16.6 µM | RXF 393 15.1 µM | EKVX 12.9 µM | OVCAR-8 16.8 µM | T47D 21.9 µM | DU-145 20.9 µM | IGROV-1 13.5 µM | NCI-H522 13.8 µM | OVCAR-3 15 µM | CAKI-1 15.8 µM | HL-60 11.7 µM | SK-OV-3 16.7 µM | SF-295 20.1 µM | HOP-62 17.7 µM | NCI/ADR-RES 20.2 µM | Malme-3M 15.6 µM | M14 17.9 µM | SF-268 15.2 µM | CCRF-CEM 21.9 µM | TK-10 19.4 µM | LOX IMVI 17.5 µM | SNB-75 12.7 µM | MDA-MB-231 17.3 µM | UACC-257 22 µM | OVCAR-4 14.4 µM | UO-31 33.9 µM | HCT-116 16.6 µM | MDA-N 20.9 µM

Cc1c(S(=O)(=O)/N=C(\NN)Nc2ccc(Cl)cc2)sc2ccc(Cl)cc12
inactive: RPMI-8226 27.9 µM | NCI-H460 16.6 µM | SK-MEL-2 16.3 µM | NCI-H23 17.7 µM | UACC-62 14.2 µM | U-251 16.3 µM | KM12 15.3 µM | OVCAR-5 14.4 µM | A498 15.8 µM | ACHN 16.3 µM | SK-MEL-5 17.1 µM | A549 16.9 µM | SW-620 24 µM | MOLT-4 13.1 µM | SNB-19 23.3 µM | 786-0 17.5 µM | K562 24 µM | NCI-H226 20 µM | COLO 205 16.3 µM | SK-MEL-28 20.6 µM | PC-3 15.5 µM | HT-29 16.6 µM | SF-539 14.3 µM | BT-549 16.7 µM | Hs-578T 36.6 µM | HOP-92 15.1 µM | SN12C 16.7 µM | RXF 393 11.1 µM | EKVX 13.9 µM | OVCAR-8 16.8 µM | T47D 10.2 µM | SR 22.2 µM | DU-145 16.9 µM | IGROV-1 15.2 µM | NCI-H522 17.3 µM | OVCAR-3 16.6 µM | CAKI-1 19 µM | MCF7 14.9 µM | HL-60 32.4 µM | SK-OV-3 19.7 µM | SF-295 17.9 µM | HOP-62 18.7 µM | NCI/ADR-RES 18 µM | Malme-3M 22.3 µM | M14 20.5 µM | SF-268 18.8 µM | CCRF-CEM 16.3 µM | TK-10 17 µM | LOX IMVI 18.6 µM | SNB-75 14.8 µM | MDA-MB-231 16.5 µM | UACC-257 18.2 µM | OVCAR-4 15.5 µM | UO-31 19 µM | HCT-116 13.3 µM | MDA-N 15.6 µM
16.6 µM: HCT-15

C[C@]12CC[C@H](O)C[C@H]1CC[C@@H]1[C@@H]2CC[C@]2(C)[C@@H](C3=CC(=O)OC3)CC[C@]12O [DIGITOXIGENIN]
0.101 µM: HCT-15
inactive: NCI-H226 1.27 µM
active: RPMI-8226 0.0757 µM | NCI-H460 0.0168 µM | SK-MEL-2 0.321 µM | NCI-H23 0.0338 µM | UACC-62 0.36 µM | U-251 0.199 µM | KM12 0.713 µM | OVCAR-5 0.59 µM | A498 0.125 µM | ACHN < 0.0125 µM | SK-MEL-5 0.0447 µM | A549 0.0183 µM | SW-620 0.118 µM | MOLT-4 < 0.01 µM | SNB-19 0.851 µM | 786-0 0.0447 µM | K562 0.0536 µM | COLO 205 0.44 µM | SK-MEL-28 0.569 µM | PC-3 0.149 µM | HT-29 0.209 µM | SF-539 0.0356 µM | BT-549 0.0372 µM | Hs-578T 0.0673 µM | HOP-92 0.188 µM | SN12C 0.0349 µM | HCC 2998 0.235 µM | MDA-MB-435 0.217 µM | RXF 393 0.0144 µM | EKVX 0.0873 µM | OVCAR-8 0.147 µM | T47D 0.292 µM | SR 0.0531 µM | DU-145 0.04 µM | IGROV-1 0.0668 µM | NCI-H522 < 0.01 µM | OVCAR-3 0.0367 µM | CAKI-1 0.0357 µM | HL-60 0.0524 µM | SK-OV-3 0.111 µM | SF-295 0.0473 µM | HOP-62 0.04 µM | NCI/ADR-RES 0.115 µM | Malme-3M 0.0615 µM | M14 0.226 µM | SF-268 0.0367 µM | CCRF-CEM 0.0297 µM | TK-10 0.0944 µM | LOX IMVI 0.0547 µM | SNB-75 0.299 µM | MDA-MB-231 0.774 µM | UACC-257 0.303 µM | OVCAR-4 0.0662 µM | UO-31 0.117 µM | HCT-116 0.0251 µM | MDA-N 0.168 µM
